The compounds below were run against T1, Full length human TBK1 (Homo sapiens, UniProt Q9UHD2) (assay: Inhibition of TBK1 Enzyme (Caliper microfluidic assay)). Settings: 25 μM ATP, 60 min at RT; -log(IC50), IC50 molar; read-out: TBK1 Inhibition (pIC50) (converted).
T1 construct: Full length human TBK1 with an N-terminal His-tag; His-tag (N); made in house; host or cells: Sf9 insect cells (baculovirus, pFastBac1)
T1 sequence (Q9UHD2 1-729): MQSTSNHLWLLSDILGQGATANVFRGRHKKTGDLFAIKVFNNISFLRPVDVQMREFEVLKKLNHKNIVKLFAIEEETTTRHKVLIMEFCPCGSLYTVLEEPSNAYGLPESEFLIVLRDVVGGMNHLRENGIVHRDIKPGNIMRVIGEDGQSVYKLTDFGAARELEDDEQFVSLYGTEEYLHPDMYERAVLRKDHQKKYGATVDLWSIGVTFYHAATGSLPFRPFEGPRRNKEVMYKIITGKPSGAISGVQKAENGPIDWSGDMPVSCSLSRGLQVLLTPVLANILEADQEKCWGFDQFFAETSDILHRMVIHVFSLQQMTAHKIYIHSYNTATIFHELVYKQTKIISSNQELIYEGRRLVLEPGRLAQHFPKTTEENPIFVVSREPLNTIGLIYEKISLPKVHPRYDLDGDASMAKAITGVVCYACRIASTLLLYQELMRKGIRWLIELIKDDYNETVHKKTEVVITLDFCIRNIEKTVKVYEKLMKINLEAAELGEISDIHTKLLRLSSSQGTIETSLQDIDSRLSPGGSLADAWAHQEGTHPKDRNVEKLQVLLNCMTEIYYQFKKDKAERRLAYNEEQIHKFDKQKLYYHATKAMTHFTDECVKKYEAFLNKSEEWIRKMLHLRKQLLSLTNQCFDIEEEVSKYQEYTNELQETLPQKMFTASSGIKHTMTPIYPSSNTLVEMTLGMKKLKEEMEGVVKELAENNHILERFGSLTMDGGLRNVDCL
Format: biochemical
Procedure: Full length human TBK1 with an N-terminal His-tag was cloned into the pFastBacl vector and was transfected into Sf9 cells. 72 hours later the virus was harvested and amplified through two additional rounds of infections. Then 400 ml of the resulting virus stock was used to infect 10L of Sf9 cells at a density of 2×10^6 cells/ml. Cell pellets were harvested 48 hours post infection and were lysed by freeze-thaw, homogenization and sonication in binding buffer (25 mM Tris pH7.6, 1 M NaCl, 10 mM imidazole, 0.5 mM TCEP) plus 0.1% Triton X-100 and complete protease inhibitor cocktail. The lysate was spun and the supernatant was purified with a HisTrap FF crude and a Superdex 200 pg column.
TBK1 inhibition is determined using a 384 well plate format in buffer containing 20 mM Hepes, pH 7.4, 10 mM MgCl2, 1 mM EDTA, 0.01% Brij-L23, 1 mM DTT. Each test compound is prepared in DMSO using 2.5-fold serial dilutions for 11 data points, which are added to the buffer so that each dilution contains 1% DMSO. To each well is added 2 μL of 1 μm 5FAM-DRHDSGLDSMKDE-NH2 (in buffer), 2 μL of diluted test compound (1% DMSO in buffer), and 5 μL of 3 nM TBK1 and 25 μM ATP (in buffer). The reaction mixture is incubated at RT for 60 min, and quenched by adding 20 mM Hepes, pH 7.4, 10 mM MgCl2, 1 mM EDTA, 0.01% Brij-L23, 1 mM DTT+25 mM EDTA. To quantify the fluorescent-labeled substrate and product following reaction, the test plate is loaded on a Caliper LC-3000, which measures percent of conversion by microfluidic-based separation. Corresponding IC50 values are calculated by non-linear curve fitting of the compound concentrations and percent of inhibition to the standard IC50 equation and reported as pIC50, i.e., −log(IC50), where IC50 is the molar concentration.

SMILES	IC50 [nM]
Cc1sc(C(=O)NCC(F)(F)F)nc1-c1ccc2nc(NC(=O)C3CC3)cn2n1 [Example 20, 4-(2-(cyclopropanecarboxamido)imidazo[1,2-b]pyridazin-6-yl)-5-methyl-N-(2,2,2-trifluoroethyl)thiazole-2-carboxamide]	501
O=C(NCC(F)(F)F)c1ncc(-c2ccc3nc(NC(=O)C4CC4)cn3c2)s1 [Example 22, 5-(2-(cyclopropanecarboxamido)imidazo[1,2-a]pyridin-6-yl)-N-(2,2,2-trifluoroethyl)thiazole-2-carboxamide]	200
Cc1sc(C(=O)NCC(F)(F)F)nc1-c1ccc2nc(NC(=O)C3CC3)cn2c1 [Example 31, 4-(2-(cyclopropanecarboxamido)imidazo[1,2-a]pyridin-6-yl)-5-methyl-N-(2,2,2-trifluoroethyl)thiazole-2-carboxamide]	398
O=C(NCC(F)F)c1ccn(-c2ccc3nc(NC(=O)C4CC4)cn3n2)n1 [Example 37, 1-(2-(cyclopropanecarboxamido)imidazo[1,2-b]pyridazin-6-yl)-N-(2,2-difluoroethyl)-1H-pyrazole-3-carboxamide]	794
O=C(NCC(F)(F)F)c1cn(-c2ccc3nc(NC(=O)C4CC4)cn3c2)cn1 [Example 41, 1-(2-(cyclopropanecarboxamido)imidazo[1,2-a]pyridin-6-yl)-N-(2,2,2-trifluoroethyl)-1H-imidazole-4-carboxamide]	63.1
COC1CCN(C(=O)c2cc(-c3ccc4nc(NC(=O)C5CC5)cn4c3)cs2)CC1 [Example 58, N-(6-(5-(4-methoxypiperidine-1-carbonyl)thiophen-3-yl)imidazo[1,2-a]pyridin-2-yl)cyclopropanecarboxamide]	794
NC(=O)[C@@H]1CC(F)(F)CN1C(=O)c1cc(-c2ccc3nc(NC(=O)C4CC4)cn3c2)cs1 [Example 82, (S)-1-(4-(2-(cyclopropanecarboxamido)imidazo[1,2-a]pyridin-6-yl)thiophene-2-carbonyl)-4,4-difluoropyrrolidine-2-carboxamide]	631
O=C(NCCO)c1nc(-c2ccc3nc(NC(=O)C4CC4)cn3c2)cs1 [Example 95, 4-(2-(cyclopropanecarboxamido)imidazo[1,2-a]pyridin-6-yl)-N-(2-hydroxyethyl)thiazole-2-carboxamide]	398
O=C1CC(NC(=O)c2nc(-c3ccc4nc(NC(=O)C5CC5)cn4c3)cs2)CN1 (centres unmarked) [Example 99, 4-(2-(cyclopropanecarboxamido)imidazo[1,2-a]pyridin-6-yl)-N-(5-oxopyrrolidin-3-yl)thiazole-2-carboxamide]	251
O=C(Nc1cn2cc(-c3csc(C(=O)N4CCC(CO)C4)n3)ccc2n1)C1CC1 (centres unmarked) [Example 100, N-(6-(2-(3-(hydroxymethyl)pyrrolidine-1-carbonyl)thiazol-4-yl)imidazo[1,2-a]pyridin-2-yl)cyclopropanecarboxamide]	200
COC1CN(C(=O)c2nc(-c3ccc4nc(NC(=O)C5CC5)cn4c3)cs2)C1 [Example 101, N-(6-(2-(3-methoxyazetidine-1-carbonyl)thiazol-4-yl)imidazo[1,2-a]pyridin-2-yl)cyclopropanecarboxamide]	631

Reference: patent publication US9598424B2 (Takeda Pharmaceutical Company Limited, priority 2014, dated 2017)
